Experimental findings from patent publication US20210321985A1, “COMPOSITIONS AND METHODS FOR TARGETED CONTRAST AGENTS FOR MOLECULAR IMAGING” (ARIZONA BOARD OF REGENTS ON BEHALF OF THE UNIVERSITY OF …, priority 2016, published 2021) are described below.

The nature of the data set: Dissolution time of a 2.5-micron encapsulated microbubble in air-saturated liquid. Type of data set: physicochemical. Particulars: for Dissolution time: 2.5-micron encapsulated microbubble, air-saturated liquid.

Regarding `FC(F)(F)C(F)(F)C(F)(F)F` [Perfluoropropane], the Dissolution time was found to be 42 min.

In the case of `FC(F)(F)C(F)(F)C(F)(F)C(F)(F)F` [Perfluorobutane], the Dissolution time is 4980 min.

Turning to `FC(F)(F)C(F)(F)C(F)(F)C(F)(F)C(F)(F)F` [Perfluoropentane (DDFP), Perfluoropentane], the Dissolution time stood at 24500 min. Further, for the setting “from Table 4”, the “stability of microbubbles relative to microbubbles containing C3F8” value was ~14,000 times and the “stability of microbubbles relative to microbubbles containing C4F10” value is “about five”.

As for `FC(F)(F)C(F)(F)C(F)(F)C(F)(F)C(F)(F)C(F)(F)F` [Perfluorohexane], for the setting “from Table 4”, the “stability of microbubbles relative to microbubbles containing C5F12” value is “only minimal increase in stability”.
